Measured values reported in patent US6737383B1, “Herbicidal oxadiazolidines” (priority 1999, dated 2004).

What was measured:
[1] = system: pigweed; experiment: Test B pre/postemergence pigweed; format: in vivo, Amaranthus retroflexus
Procedure, shortened: (§1)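 Herbicidal effect was estimated by eye on a ten-point control scale after plants spent twelve to sixteen days in a greenhouse following soil or foliar treatment. Foliar sprays targeted plants at one to four leaves; all doses were formulated in a non-phytotoxic solvent with surfactant.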

[2] = system: rape; experiment: Test B pre/postemergence rape; format: in vivo, Brassica napus
Procedure, shortened: as §1

[3] = system: purple nutsedge; experiment: Test B pre/postemergence purple nutsedge; format: in vivo, Cyperus rotundus
Procedure, shortened: as §1

[4] = system: morningglory; experiment: Test B pre/postemergence morningglory; format: in vivo, Ipomoea hederacea
Procedure, shortened: as §1

[5] = system: surinam grass; experiment: Test B pre/postemergence surinam grass; format: in vivo, Brachiaria decumbens
Procedure, shortened: as §1

[6] = system: wheat; experiment: Test B pre/postemergence wheat; format: in vivo, Triticum aestivum
Procedure, shortened: as §1

[7] = system: blackgrass; experiment: Test B pre/postemergence blackgrass; format: in vivo, Alopecurus myosuroides
Procedure, shortened: as §1

[8] = system: wild oat; experiment: Test B pre/postemergence wild oat; format: in vivo, Avena fatua
Procedure, shortened: as §1

[9] = system: duck salad; experiment: Test B flood test duck salad; format: in vivo, Heteranthera limosa
Procedure, shortened: (§2)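 Each value is a visual injury score relative to controls, with 10 meaning complete control and 0 no effect. Evaluation took place twelve to sixteen days after the 2-leaf-stage plants were treated and kept in the greenhouse.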

[10] = system: soybean; experiment: Test B pre/postemergence soybean; format: in vivo, Glycine max
Procedure, shortened: as §1

[11] = system: velvetleaf; experiment: Test B pre/postemergence velvetleaf; format: in vivo, Abutilon theophrasti
Procedure, shortened: as §1

[12] = system: bedstraw; experiment: Test B pre/postemergence bedstraw; format: in vivo, Galium aparine
Procedure, shortened: as §1

[13] = system: bamyardgrass; experiment: Test B flood test barnyardgrass; format: in vivo, Echinochloa crus-galli
Procedure, shortened: as §2

[14] = system: cocklebur; experiment: Test B pre/postemergence cocklebur; format: in vivo, Xanthium strumarium
Procedure, shortened: as §1

[15] = system: giant foxtail; experiment: Test B pre/postemergence giant foxtail; format: in vivo, Setaria faberii
Procedure, shortened: as §1

[16] = system: smallflower flatsedge; experiment: Test B flood test smallflower flatsedge; format: in vivo, Cyperus difformis
Procedure, shortened: as §2

[17] = Postemergence, Rate 62 g/ha, scale 0 to 10, 0 is no effect, 10 is complete control
[18] = Postemergence, Rate 250 g/ha, scale 0 to 10, 0 no effect, 10 complete control
[19] = Preemergence, Rate 62 g/ha, scale 0 to 10 (0 no effect, 10 complete control)
[20] = Preemergence, Rate 125 g/ha, scale 0 to 10 (0 no effect, 10 complete control)
[21] = Preemergence, Rate 250 g/ha, scale of 0 to 10 where 0 is no effect and 10 is complete control
[22] = Preemergence, Rate 500 g/ha, scale 0 (no effect) to 10 (complete control)
[23] = Rate 125 g/ha, Postemergence, scale 0 to 10, 0 no effect, 10 complete control
[24] = Rate 500 g/ha, Postemergence, scale 0 to 10, 0 no effect, 10 complete control
[25] = Rate 125 g/ha, Postemergence section (flood test species), scale 0 to 10, 0 no effect, 10 complete control
[26] = Rate 500 g/ha, listed under Postemergence (flood test species), scale 0 to 10, 0 no effect, 10 complete control
[27] = flood test, listed under Postemergence, Rate 250 g/ha, scale 0 to 10, 0 no effect, 10 complete control

Cc1cccc(C(C)C)c1-n1c(=O)on(C(=O)N(c2ccccc2)C(C)C)c1=O [Compound 66]
2: Morningglory plant response rating [4, 24] | Blackgrass plant response rating [7, 18] | Wild oats plant response rating [8, 22] | Ducksalad plant response rating [9, 26] | Soybean plant response rating [10, 18] | Velvetleaf plant response rating [11, 24] | Bedstraw plant response rating [12, 24] | S. Flatsedge plant response rating [16, 27]
0: Redroot pigweed plant response rating [1, 17] | Redroot pigweed plant response rating [1, 18] | Redroot pigweed plant response rating [1, 19] | Plant response rating, Redroot pigweed [1, 20] | Plant response rating, Redroot pigweed [1, 21] | Redroot pigweed plant response rating [1, 22] | Redroot pigweed plant response rating [1, 23] | Rape plant response rating [2, 17] | Rape plant response rating [2, 18] | Rape plant response rating [2, 19] | Plant response rating, Rape [2, 20] | Plant response rating, Rape [2, 21] | Rape plant response rating [2, 22] | Rape plant response rating [2, 23] | Rape plant response rating [2, 24] | Nutsedge plant response rating [3, 17] | Nutsedge plant response rating [3, 18] | Nutsedge plant response rating [3, 19] | Plant response rating, Nutsedge [3, 20] | Nutsedge plant response rating [3, 23] | Nutsedge plant response rating [3, 24] | Morningglory plant response rating [4, 17] | Morningglory plant response rating [4, 19] | Plant response rating, Morningglory [4, 20] | Plant response rating, Morningglory [4, 21] | Morningglory plant response rating [4, 22] | B. signalgrass plant response rating [5, 17] | B. signalgrass plant response rating [5, 18] | B. signalgrass plant response rating [5, 19] | Plant response rating, B. signalgrass [5, 20] | Plant response rating, B. signalgrass [5, 21] | B. signalgrass plant response rating [5, 22] | B. signalgrass plant response rating [5, 23] | B. signalgrass plant response rating ([5]; Rate 500 g/ha, Postemergence, scale of 0 to 10 where 0 is no effect and 10 is complete control) | Wheat plant response rating [6, 17] | Wheat plant response rating [6, 18] | Wheat plant response rating [6, 19] | Plant response rating, Wheat [6, 20] | Plant response rating, Wheat [6, 21] | Wheat plant response rating [6, 22] | Wheat plant response rating [6, 23] | Wheat plant response rating [6, 24] | Blackgrass plant response rating [7, 17] | Blackgrass plant response rating [7, 19] | Plant response rating, Blackgrass [7, 20] | Plant response rating, Blackgrass [7, 21] | Blackgrass plant response rating [7, 22] | Blackgrass plant response rating [7, 23] | Wild oats plant response rating [8, 17] | Wild oats plant response rating [8, 18] | Wild oats plant response rating [8, 19] | Plant response rating, Wild oats [8, 20] | Plant response rating, Wild oats [8, 21] | Wild oats plant response rating [8, 23] | Wild oats plant response rating [8, 24] | Ducksalad plant response rating [9, 17] | Ducksalad plant response rating [9, 25] | Ducksalad plant response rating [9, 27] | Soybean plant response rating [10, 19] | Plant response rating, Soybean [10, 20] | Plant response rating, Soybean [10, 21] | Soybean plant response rating [10, 22] | Velvetleaf plant response rating [11, 17] | Velvetleaf plant response rating [11, 18] | Velvetleaf plant response rating [11, 19] | Plant response rating, Velvetleaf [11, 20] | Plant response rating, Velvetleaf [11, 21] | Velvetleaf plant response rating [11, 22] | Velvetleaf plant response rating [11, 23] | Bedstraw plant response rating [12, 17] | Bedstraw plant response rating [12, 18] | Bedstraw plant response rating [12, 19] | Plant response rating, Bedstraw [12, 20] | Plant response rating, Bedstraw [12, 21] | Bedstraw plant response rating [12, 22] | Bedstraw plant response rating [12, 23] | Barnyardgrass plant response rating [13, 17] | Barnyardgrass plant response rating [13, 25] | Barnyardgrass plant response rating [13, 27] | Cocklebur plant response rating [14, 17] | Cocklebur plant response rating [14, 18] | Cocklebur plant response rating [14, 19] | Plant response rating, Cocklebur [14, 20] | Plant response rating, Cocklebur [14, 21] | Cocklebur plant response rating [14, 22] | Cocklebur plant response rating [14, 23] | Cocklebur plant response rating [14, 24] | Giant foxtail plant response rating [15, 17] | Giant foxtail plant response rating [15, 18] | Giant foxtail plant response rating [15, 23] | Giant foxtail plant response rating [15, 24] | S. Flatsedge plant response rating [16, 17] | S. Flatsedge plant response rating [16, 25]
9: Giant foxtail plant response rating [15, 22]
6: Nutsedge plant response rating [3, 22] | Plant response rating, Giant foxtail [15, 21]
3: Blackgrass plant response rating [7, 24] | Soybean plant response rating [10, 24] | Barnyardgrass plant response rating [13, 26] | S. Flatsedge plant response rating [16, 26]
4: Redroot pigweed plant response rating [1, 24] | Giant foxtail plant response rating [15, 19] | Plant response rating, Giant foxtail [15, 20]
1: Morningglory plant response rating [4, 18] | Morningglory plant response rating [4, 23] | Soybean plant response rating [10, 17] | Soybean plant response rating [10, 23]
